Results on 4 compounds are retold here after ChEMBL document CHEMBL1127931, “Design and synthesis of a prototypical non-peptidic inhibitor model for the enzme renin” (Bioorg Med Chem Lett, 1994).

For orientation: IC50 means the concentration that inhibits the measured activity by half. A low value points to inhibition by little substance.

For the test, the target named is T1, Renin (Homo sapiens, UniProt P00797).
T1 sequence (P00797 whole entry): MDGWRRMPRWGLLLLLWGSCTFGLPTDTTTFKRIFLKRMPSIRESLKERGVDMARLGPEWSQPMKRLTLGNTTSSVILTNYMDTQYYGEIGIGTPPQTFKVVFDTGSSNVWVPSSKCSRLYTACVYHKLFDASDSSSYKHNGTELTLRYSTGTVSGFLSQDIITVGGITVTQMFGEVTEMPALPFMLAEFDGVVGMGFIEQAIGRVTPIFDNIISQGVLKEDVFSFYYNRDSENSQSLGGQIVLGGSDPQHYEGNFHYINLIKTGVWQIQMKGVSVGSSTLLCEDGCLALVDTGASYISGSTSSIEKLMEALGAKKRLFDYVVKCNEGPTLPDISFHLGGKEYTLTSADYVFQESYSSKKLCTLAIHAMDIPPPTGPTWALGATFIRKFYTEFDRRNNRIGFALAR
Nature of the test: Binding affinity towards human renin was determined.
Compound `CCCCNC(=O)[C@H](C)C[C@H](O)[C@@H]1C[C@@H](C)[C@@H](c2ccccc2)N1C(=O)OCc1ccccc1` came in with an IC50 of more than 100 µM.

Regarding `CCCCNC(=O)[C@H](C)C[C@H](O)[C@H](C[C@@H](C)Cc1ccccc1)NC(=O)OC(C)(C)C`, the concentration for half-maximal inhibition (IC50) is more than 100 µM.

For `CCCCNC(=O)[C@H](C)C[C@H](O)C1C[C@@H](C)[C@@H](c2ccccc2)N1C(=O)OC(C)(C)C` (some centres undefined), the IC50 is more than 100 µM.

As for `CCCCNC(=O)[C@H](C)C[C@H](O)[C@@H](N)C[C@@H](C)Cc1ccccc1`, the IC50 stood at 37 µM.
